Patent US7666890B2, “Synthesis and herbicidal activity of 1- (2-substituted benzo[d]thiazol-5-yl)-1H-1,2,4-triazol-5(4H)-one derivatives” (Huazhong Normal University, priority 2007, dated 2010)

Key:
Test in all cases: Test of herbicidal activities (greenhouse pot method)
Type in all cases: in vivo
Settings in all cases: single dose 300 g ai./h, treated before/after germination, 15 days later, greenhouse pot
Digiatria sanguinalis = system: Digiatria sanguinalis
Method: (§1) Garden soil was collected from regions where no pesticide is used and mixed uniformly with mountain soil and organic humus soil at a volume ratio of 1:1:1.
(§2) Multiple flowerpots each having a diameter of 9.5 cm and a depth of 8 cm were filled with the soil mixture to 3/4 volume. After water was added to the soil and the soil was completely wet, seeds of three grass weeds and three broadleaf weeds were inserted into the flowerpots (10-15 seeds for each weed). After seeding, the seeds were covered with fine oil mixed with sand and having a thickness of 1-3 cm. After the soil absorbed enough water and became saturated, excess water at the bottom of the flowerpot was drained, and the seeds were placed in a greenhouse for growth.
(§3) The weeds were watered every day so as to keep relative humidity of the soil at approximately 80%, growing temperature of 15-30° C., and air humidity above 50%. As the grass weeds grew to a 2-leaf stage and the broadleaf weeds was in a leaf period, spraying operation […] was performed on the stems and leafs. Planting before germination was performed before spraying. Soil processing was performed before the seeds of the weeds emerged.
(§4) Six target weeds comprising three grass weeds: Echinochloa crusgalli, Digiatria sanguinalis, Setaria viridis, along with three broadleaf weeds: Brassica juncea, Amaranthus retroflexus, Chenopodium album were treated before/after germination using a so-called “greenhouse pot” method with a single dose. A treating dose was 300 g ai./h. The process was repeated three times, and a blank control was used.
(§5) A 3WPSHZ-500 type automatic spraying tower with a spraying area of 0.132 m^2, a spray volume of 10 mL, working pressure of 0.2 MPa, and a liquid volume of 40% of maximum was used. After treatment, the weeds were placed in a greenhouse at a temperature of 15-30° C. Reaction symptoms of the weeds were regularly observed, and 15 days later, five reaction levels were determined according to the following inhibition intervals: 90≦A≦100%; 80≦B<90%, 60≦C<80%; 50≦D<60%, E<50%.

Amaranthus retroflexus = system: Amaranthus retroflexus
Method: as §1, §2, §3, §4, §5

Chenopodium album = system: Chenopodium album
Method: as §1, §2, §3, §4, §5

Setaria viridis = system: Setaria viridis
Method: as §1, §2, §3, §4, §5

Brassica juncea = system: Brassica juncea
Method: as §1, §2, §3, §4, §5

Echinochloa crusgalli = system: Echinochloa crusgalli
Method: as §1, §2, §3, §4, §5

| SMILES | Herbicidal activity Digiatria sanguinalis (inhibition level) (Digiatria sanguinalis) | Herbicidal activity Amaranthus retroflexus (inhibition level) (Amaranthus retroflexus) | Herbicidal activity Chenopodium album (inhibition level) (Chenopodium album) | Herbicidal activity Setaria viridis (inhibition level) (Setaria viridis) | Herbicidal activity Brassica juncea (inhibition level) (Brassica juncea) | Herbicidal activity Echinochloa crusgalli (inhibition level) (Echinochloa crusgalli) |
| --- | --- | --- | --- | --- | --- | --- |
| Cc1nn(-c2cc3nc(SCc4csc(Cl)n4)sc3cc2F)c(=O)n1C(F)F [Compound 10] | C (60 ≦ C < 80%) | B (80 ≦ B < 90%) | C (60 ≦ C < 80%) | C (60 ≦ C < 80%) | A (90 ≦ A ≦ 100%) | B (80 ≦ B < 90%) |
| Cc1nn(-c2cc3nc(SCc4ccccc4)sc3cc2F)c(=O)n1C(F)F [Compound 11] | B (80 ≦ B < 90%) | B (80 ≦ B < 90%) | C (60 ≦ C < 80%) | C (60 ≦ C < 80%) | A (90 ≦ A ≦ 100%) | E (E < 50%) |
| Cc1nn(-c2cc3nc(SCc4ccc(F)cc4F)sc3cc2F)c(=O)n1C(F)F [Compound 12] | B (80 ≦ B < 90%) | A (90 ≦ A ≦ 100%) | E (E < 50%) | B (80 ≦ B < 90%) | C (60 ≦ C < 80%) | E (E < 50%) |
| Cc1nn(-c2cc3nc(SCc4cccc([N+](=O)[O-])c4)sc3cc2F)c(=O)n1C(F)F [Compound 13] | B (80 ≦ B < 90%) | A (90 ≦ A ≦ 100%) | C (60 ≦ C < 80%) | C (60 ≦ C < 80%) | B (80 ≦ B < 90%) | C (60 ≦ C < 80%) |
| Cc1ccccc1CSc1nc2cc(-n3nc(C)n(C(F)F)c3=O)c(F)cc2s1 [Compound 14] | C (60 ≦ C < 80%) | B (80 ≦ B < 90%) | C (60 ≦ C < 80%) | C (60 ≦ C < 80%) | A (90 ≦ A ≦ 100%) | B (80 ≦ B < 90%) |
| Cc1ccc(CSc2nc3cc(-n4nc(C)n(C(F)F)c4=O)c(F)cc3s2)cc1 [Compound 15] | C (60 ≦ C < 80%) | A (90 ≦ A ≦ 100%) | B (80 ≦ B < 90%) | B (80 ≦ B < 90%) | A (90 ≦ A ≦ 100%) | B (80 ≦ B < 90%) |
| Cc1ccc([N+](=O)[O-])c(CSc2nc3cc(-n4nc(C)n(C(F)F)c4=O)c(F)cc3s2)c1 [Compound 16] | C (60 ≦ C < 80%) | C (60 ≦ C < 80%) | C (60 ≦ C < 80%) | B (80 ≦ B < 90%) | B (80 ≦ B < 90%) | C (60 ≦ C < 80%) |
| COc1cccc(CSc2nc3cc(-n4nc(C)n(C(F)F)c4=O)c(F)cc3s2)c1 [Compound 17] | E (E < 50%) | A (90 ≦ A ≦ 100%) | B (80 ≦ B < 90%) | B (80 ≦ B < 90%) | A (90 ≦ A ≦ 100%) | C (60 ≦ C < 80%) |
| Cc1nn(-c2cc3nc(SCc4ccccc4F)sc3cc2F)c(=O)n1C(F)F [Compound 18] | A (90 ≦ A ≦ 100%) | A (90 ≦ A ≦ 100%) | C (60 ≦ C < 80%) | B (80 ≦ B < 90%) | B (80 ≦ B < 90%) | C (60 ≦ C < 80%) |
| Cc1nn(-c2cc3nc(SCc4cccc(F)c4)sc3cc2F)c(=O)n1C(F)F [Compound 19] | B (80 ≦ B < 90%) | A (90 ≦ A ≦ 100%) | A (90 ≦ A ≦ 100%) | C (60 ≦ C < 80%) | B (80 ≦ B < 90%) | E (E < 50%) |
| Cc1nn(-c2cc3nc(SCc4ccc(F)cc4)sc3cc2F)c(=O)n1C(F)F [Compound 20] | C (60 ≦ C < 80%) | A (90 ≦ A ≦ 100%) | B (80 ≦ B < 90%) | B (80 ≦ B < 90%) | B (80 ≦ B < 90%) | C (60 ≦ C < 80%) |
| Cc1nn(-c2cc3nc(SCc4cccc(Br)c4)sc3cc2F)c(=O)n1C(F)F [Compound 21] | B (80 ≦ B < 90%) | A (90 ≦ A ≦ 100%) | B (80 ≦ B < 90%) | E (E < 50%) | B (80 ≦ B < 90%) | C (60 ≦ C < 80%) |
| Cc1nn(-c2cc3nc(SCc4ccc(Br)cc4F)sc3cc2F)c(=O)n1C(F)F [Compound 22] | C (60 ≦ C < 80%) | B (80 ≦ B < 90%) | D (50 ≦ D < 60%) | C (60 ≦ C < 80%) | D (50 ≦ D < 60%) | C (60 ≦ C < 80%) |
| Cc1nn(-c2cc3nc(SCc4cccc(Cl)c4)sc3cc2F)c(=O)n1C(F)F [Compound 23] | C (60 ≦ C < 80%) | A (90 ≦ A ≦ 100%) | D (50 ≦ D < 60%) | D (50 ≦ D < 60%) | E (E < 50%) | C (60 ≦ C < 80%) |
| Cc1nn(-c2cc3nc(SCc4ccccc4Cl)sc3cc2F)c(=O)n1C(F)F [Compound 24] | B (80 ≦ B < 90%) | A (90 ≦ A ≦ 100%) | B (80 ≦ B < 90%) | D (50 ≦ D < 60%) | C (60 ≦ C < 80%) | C (60 ≦ C < 80%) |
| Cc1nn(-c2cc3nc(SCc4ccc(Cl)cc4)sc3cc2Br)c(=O)n1C(F)F [Compound 25] | C (60 ≦ C < 80%) | E (E < 50%) | E (E < 50%) | B (80 ≦ B < 90%) | C (60 ≦ C < 80%) | D (50 ≦ D < 60%) |
| Cc1nn(-c2cc3nc(SCc4ccc(Br)cc4)sc3cc2Br)c(=O)n1C(F)F [Compound 26] | C (60 ≦ C < 80%) | B (80 ≦ B < 90%) | A (90 ≦ A ≦ 100%) | C (60 ≦ C < 80%) | B (80 ≦ B < 90%) | D (50 ≦ D < 60%) |
| Cc1nn(-c2cc3nc(SCc4ccc(F)cc4)sc3cc2Br)c(=O)n1C(F)F [Compound 27] | D (50 ≦ D < 60%) | D (50 ≦ D < 60%) | C (60 ≦ C < 80%) | B (80 ≦ B < 90%) | A (90 ≦ A ≦ 100%) | B (80 ≦ B < 90%) |
| Cc1nn(-c2cc3nc(SCc4coc5ccccc5c4=O)sc3cc2Br)c(=O)n1C(F)F [Compound 28] | B (80 ≦ B < 90%) | C (60 ≦ C < 80%) | C (60 ≦ C < 80%) | D (50 ≦ D < 60%) | A (90 ≦ A ≦ 100%) | B (80 ≦ B < 90%) |
